Results reported in patent publication US7915393B2 (Corixa Corporation, priority 2001, dated 2011).
Marks after values point to notes of the source that are not given here.

Legend:
[1] = test system: WT1 specific CD8+ T-cell clone; test: IFN-γ ELISPOT recognition by human WT1 specific CD8+ T-cell clone (whole gene priming); assay type: cell-based; details: HLA-A2 restricted clone
[2] = test system: targets incubated with WT1 peptides (EL-4) and WT1 positive tumor cells (TRAMP-C, BLK-SV40); test: CTL from mice immunized with WT1 peptides, chromium release assay; assay type: in vivo, B6 mice; details: for generation of peptide specific CTL following immunization: spleen cells stimulated in vitro with peptide; for generation of peptide specific CTL following immunization / lysis of WT1 positive tumor cells by peptide specific CTL: chromium release; for lysis of WT1 positive tumor cells by peptide specific CTL: WT1 positive tumor cell lines (TRAMP-C, BLK-SV40)
Experimental: CTL were evaluated with a standard chromium release assay (Chen et al., Cancer Res. 54:1065-1070, 1994). 10^6 target cells were incubated at 37° C. with 150 μCi of sodium ^51Cr for 90 minutes, in the presence or absence of specific peptides. Cells were washed three times and resuspended in RPMI with 5% fetal bovine serum. For the assay, 10^4 51Cr-labeled target cells were incubated with different concentrations of effector cells in a final volume of 200 μl in U-bottomed 96-well plates. Supernatants were removed after 4 to 7 hours at 37° C., and the percentage specific lysis was determined by the formula: % specific lysis=100×(experimental release−spontaneous release)/(maximum release−spontaneous release).
P117-139, a peptide with motifs appropriate for binding to class I and class II MHC, was identified as described above using TSITES and BIMAS HLA peptide binding prediction analyses. Mice were immunized as described in Example 3. […] CTL were evaluated with a standard chromium release assay.

[3] = test system: WT1-specific CD8+ T cell clone and T cell line; test: HLA-A2 peptide-MHC tetramer staining of WT1 specific T cells (flow cytometry); assay type: cell-based, human
[4] = test system: T cells of immunized B6 mice; test: Proliferative T cell responses of immunized mice, thymidine incorporation assay; assay type: in vivo; details: for stimulation index (SI), proliferative T cell response: mice immunized with WT1 peptides, thymidine incorporation (FIGS. 5A-5C)
Experimental: Peptides were dissolved in 1 ml sterile water for injection, and B6 mice were immunized 3 times at time intervals of three weeks. Adjuvants used were CFA/IFA, GM-CSF, and MONTANIDE®. […] In particular, lymphocytes were cultured in 96-well plates at 2×10^5 cells per well with 4×10^5 irradiated (3000 rads) syngeneic spleen cells and the designated peptide.

[5] = test system: CD4 cells of splenocytes; test: Intracellular interferon-gamma staining of CD4 cells (FACS) after immunization with WT-1 protein constructs; assay type: in vivo; details: C57BL/6 mice
Experimental: Groups of four C57BL/6 mice were immunized subcutaneously with 20 μg WT-1 proteins: WT-1-F or WT-1 full length (FL), with Ra12, HIS or TAT fusions. Immunizations were performed at weeks 0, 3 and 9, and spleens were harvested at week 11. Splenocytes were then stimulated in vitro for 6 hours with medium alone, with a 15-mer peptide “p32” ([…], amino acids 125-139 of WT-1; found within the p117-139 peptide set forth in SEQ ID NO:2), with the DC2.4-WT-1/LAMP cell line, or with rRa12. CD4 cells were then stained for intracellular interferon-gamma and quantified by FACS analysis. A portion of these splenocytes were then stimulated in vitro for 8 days, after which CD4+ IFN+ cells were enumerated. After the 6 hour stimulation with p32, 0.33% of CD4-positive cells were positive for intracellular IFN-gamma staining in mice immunized with the truncated N-terminal construct rWT1-F-TAT. By contrast, only 0.10% of CD4-positive cells stained positive for intracellular IFN-gamma in mice immunized with rWT1-FL-TAT. […] By contrast, 0.24% of CD4-positive cells from mice immunized with the full-length WT1-TAT construct stained positive for intracellular IFN-gamma.

[6] = test system: DC2.4 A2/Kb cells pulsed with peptides; test: Identification of CTL epitope: chromium release with peptide pulsed DC2.4 A2/Kb cells; assay type: in vivo; details: HLA-A2/Kb transgenic mice
[7] = test system: human cells; test: Cellular cytotoxicity of WT1-ubiquitin fusion expressed in human cells; assay type: cell-based; details: compared with native WT1
Text: The human ubiquitin open reading frame (SEQ ID NO:384) was mutated such that the nucleotides encoding the last amino acid encode an alanine instead of a glycine. […] The G->A mutation prevents co-translational cleavage of the […] protein by the proteases that normally process poly-ubiquitin during translation. The DNA and predicted amino acid sequence for the resulting construct are set forth in SEQ ID NOs:385 and 410, respectively. […] The resulting protein is predicted to be targeted to the proteosome by virtue of the added ubiquitin molecule.

[8] = Clinical chemistry and hematology analysis, WT1 dose titration study; assay type: in vivo; details: mice immunized with WT1 protein
Text: Special emphasis was put on evaluation of potential hematopoietic toxicity.

[9] = test system: mouse B6 class I antigens (D^b or K^b molecules on the surface of RMA-S cells); test: Peptide binding to C57Bl/6 murine class I MHC using RMA-S cells (flow cytometry); assay type: cell-based; details: 9-mer peptides within p117-139
Experimental: In brief, RMA-S cells were cultured for 7 hours at 26° C. in complete medium supplemented with 1% FCS. A total of 10^6 RMA-S cells were added into each well of a 24-well plate and incubated either alone or with the designated peptide (25 ug/ml) for 16 hours at 26° C. and additional 3 hours at 37° C. in complete medium. Cells were then washed three times and stained with fluorescein isothiocyanate-conjugated anti D^b or anti-K^b antibody (PharMingen, San Diego, Calif.). Labeled cells were washed twice, resuspended and fixed in 500 ul of PBS with 1% paraformaldehyde and analyzed for fluorescence intensity in a flow cytometer (Becton-Dickinson FACSCALIBUR™). The percentage of increase of D^b or K^b molecules on the surface of the RMA-S cells was measured by increased mean fluorescent intensity of cells incubated with peptide compared with that of cells incubated in medium alone.

VLDFAPPGAS
recognition by WT1 specific CD8+ T-cell clone (ELISPOT) [1]: specifically recognized

SCLESQPAI
generation of peptide specific CTL following immunization [2]: peptide specific CTL lines were generated

VLDFAPPGA
staining of the WT1-specific CD8+ T cell clone by HLA-A2 tetramers incubated with an excess of the peptide [3]: specifically stained the CD8+ T cell clone
recognition by WT1 specific CD8+ T-cell clone (ELISPOT) [1]: specifically recognized

CMTWNQMNL
lysis of WT1 positive tumor cells by peptide specific CTL [2]: failed to lyse cell lines that expressed WT1 proteins
generation of peptide specific CTL following immunization ([2]; listed as p235-243): peptide specific CTL lines were generated

p136-144: 9-mer class I MHC binding peptide; human or mouse form not stated at this place (SCLESQPAI; UniProt P19544 136-144, looked up, fragment)
generation of peptide specific CTL following immunization [2]: CTL were generated

VLDFAPPGASAYGSL [peptide 10]
recognition by WT1 specific CD8+ T-cell clone (ELISPOT) [1]: recognized

NLYQMTSQL
generation of peptide specific CTL following immunization [2]: not

LDFAPPGAS
staining of the WT1-specific CD8+ T cell clone by HLA-A2 tetramers incubated with an excess of the peptide [3]: did not stain the CD8+ T cell clone

RDLNALLPAVPSLGGGG [p6-22]
stimulation index (SI), proliferative T cell response [4]: 2.3

QWAPVLDFAPPGASA [peptide 9]
recognition by WT1 specific CD8+ T-cell clone (ELISPOT) [1]: recognized

rWT1-FL-TAT: full-length WT1 as TAT fusion
CD4-positive cells positive for intracellular IFN-gamma staining ([5]; 20 μg s.c. weeks 0, 3 and 9, 6 hour stimulation with p32): 0.10%
CD4+ cells with IFN-gamma staining ([5]; 20 μg s.c., after the 8 day stimulation): 0.24%

WT1 p39-47: irrelevant HLA-A2 peptide used as tetramer control (DFAPPGASA; UniProt P19544 39-47, looked up, fragment)
staining of the WT1-specific CD8+ T cell clone by HLA-A2 tetramers incubated with an excess of the peptide [3]: did not stain the CD8+ T cell clone

GATLKGVAAGSSSSVKWTE [p244-262]
stimulation indices (SI), proliferative T cell response to the immunizing peptides ([4]; Vaccine A immunized mice, bulk lines, peptide 25 ug/ml, 96 hr (FIG. 6A)): No proliferative response

VRRVSGVAPTLVRS [Peptide P299-313]
stimulation index (SI), proliferative T cell response [4]: 3.3

ALLPAVPSL
generation of peptide specific CTL following immunization [2]: peptide specific CTL lines were generated
WT1 immunized animals with CTL responses to the peptide [6]: 4 of 5

WT1-Ubiquitin fusion: mutated (G->A) human ubiquitin fused upstream of a splice variant of human WT1
cellular cytotoxicity when expressed in human cells [7]: decreased cellular cytotoxicity

WT1 protein: WT1 protein used for immunization in a multiple dose titration in mice
blood cell counts and blood chemistry (BUN, creatinine, bilirubin, albumin, globulin) [8]: within the normal range
WT1-specific antibody response (MPL-SE as adjuvant, doses 25 μg, 100 μg to 1000 μg WT1 protein, female C57/B6 mice (FIG. 19)): strong WT1-specific antibody response
cellular T-cell responses (MPL-SE as adjuvant, doses 25 μg, 100 μg to 1000 μg WT1 protein, female C57/B6 mice (FIG. 20)): cellular T-cell responses
myeloid/erythroid ratio in sternum and femur marrow (mice immunized with WT1 protein): normal
systemic histopathological or toxicological effects of immunization (mice, multiple dose titration): No systemic histopathological or toxicological effects

NAPYLPSCL
binding to H-2^b class I molecules [9]: bind to H-2^b class I molecules
lysis of targets incubated with 9-mer peptide by CTL generated by immunization with p117-139 ([2]; EL-4 pulsed with peptide, E:T 25:1 (FIG. 13A)): lysed targets
peptide specific lysis after restimulation of the p117-139 specific CTL line with the 9-mer ([2]; FIGS. 13B and 13C): demonstrated peptide specific lysis
lysis of WT1 positive tumor cells by peptide specific CTL [2]: showed lysis of a WT1 positive tumor cell line
